Measurements published in ChEMBL document CHEMBL1121919, “13N-labeled L-amino acids for in vivo assessment of local myocardial metabolism” (J Med Chem, 1981).
Each block holds one compound with its values, some of them ahead of it.

Experiments:
Canis familiaris [1] = species on record: Canis familiaris; experiment: Ischemic myocardial half-life measured after intracoronary injection of [13N]-labeled amino acid in dogs (control - 88+/-2); assay type: ADME, organism-based, Canis lupus familiaris, Myocardium; settings: dog, in vivo, other
Canis familiaris [2] = species on record: Canis familiaris; experiment: Ischemic myocardial residue fraction of [13N]-labeled amino acid was observed with a single pass uptake technique in open-chest instrumented dogs (control - 18.5+/-2.1); assay type: functional, Canis lupus familiaris
Canis familiaris [3] = species on record: Canis familiaris; experiment: Ischemic myocardial residue fraction of [13N]-labeled amino acid was observed with a single pass uptake technique in open-chest instrumented dogs (control - 14+/-4.2); assay type: functional, Canis lupus familiaris
Canis familiaris [4] = species on record: Canis familiaris; experiment: Ischemic myocardial half-life measured after intracoronary injection of [13N]-labeled amino acid in dogs (control - 147+/-12); assay type: ADME, organism-based, Canis lupus familiaris; settings: dog, in vivo, other
Canis familiaris [5] = species on record: Canis familiaris; experiment: Ischemic myocardial half-life measured after intracoronary injection of [13N]-labeled amino acid in dogs (control - 114.1+/-26.5); assay type: ADME, organism-based, Canis lupus familiaris, Myocardium; settings: dog, in vivo, other
Canis familiaris [6] = species on record: Canis familiaris; experiment: Ischemic myocardial residue fraction of [13N]-labeled amino acid was observed with a single pass uptake technique in open-chest instrumented dogs (control - 8.1+/-3.1); assay type: functional, Canis lupus familiaris
Canis familiaris [7] = species on record: Canis familiaris; experiment: Ischemic myocardial half-life measured after intracoronary injection of [13N]-labeled amino acid in dogs (control - 15.9+/-0.2); assay type: ADME, organism-based, Canis lupus familiaris, Myocardium; settings: dog, in vivo, other
Canis familiaris [8] = species on record: Canis familiaris; experiment: Ischemic myocardial residue fraction of [13N]-labeled amino acid was observed with a single pass uptake technique in open-chest instrumented dogs (control - 17.3+/-6.1); assay type: functional, Canis lupus familiaris

T1/2 (Canis familiaris [1]): 1.29 h
SMILES: C[C@H](N)C(=O)O [ALANINE]
Residue fraction (Canis familiaris [2]): 19.5%

T1/2 (Canis familiaris [4]): 2.87 h
SMILES: N[C@@H](CC(=O)O)C(=O)O [ASPARTIC ACID]
Residue fraction (Canis familiaris [3]): 17%

T1/2 (Canis familiaris [5]): 1.35 h
SMILES: N[C@@H](CCC(=O)O)C(=O)O [GLUTAMIC ACID]
Residue fraction (Canis familiaris [6]): 11.5%

SMILES: NC(=O)CC[C@H](N)C(=O)O [GLUTAMINE]
T1/2 (Canis familiaris [7]): 0.292 h
Residue fraction (Canis familiaris [8]): 20.5%
